# According to US7655252B2 (priority 1999, dated 2010):
# Test system: Influenza virus A/AA/6/60
# Format: cell-based
substance,measurement,setting,value
t-octylphenoxypolyethoxyethanol [TRITON X-100],inhibition of the infectivity of virus,,only partially inhibited
same,reduction of influenza A infection of MDCK cells,30 min,completely ineffective
